Laboratory results taken from patent US20240124417A1, “COMPOUNDS USEFUL AS IMMUNOMODULATORS” (Bristol-Myers Squibb Company, priority 2019, published 2024).

Target: T1, PD-1/PD-L1 (Homo sapiens, UniProt Q9NZQ7)
T1 construct: TVMV protease site linker (C); made in house; host or cells: HEK293T cells
Assay: PD-1/PD-L1 Homogenous Time-Resolved Fluorescence (HTRF) binding assay
Settings: PD-L1-His 10 nM, PD-1-Ig 20 nM
Method in brief: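 Inhibitors pre-incubated 15 min with PD-L1-His extracellular domain (10 nM final) in dPBS with 0.1% BSA and 0.05% Tween-20, then PD-1-Ig (20 nM final) added for a further 15 min. Read-out by HTRF with europium cryptate anti-Ig (1 nM) and APC anti-His (20 nM). Related pairs: PD-1-Ig/PD-L2-His (20/5 nM), CD80-His/PD-L1-Ig (100/10 nM).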

T1 sequence (Q9NZQ7 18-239): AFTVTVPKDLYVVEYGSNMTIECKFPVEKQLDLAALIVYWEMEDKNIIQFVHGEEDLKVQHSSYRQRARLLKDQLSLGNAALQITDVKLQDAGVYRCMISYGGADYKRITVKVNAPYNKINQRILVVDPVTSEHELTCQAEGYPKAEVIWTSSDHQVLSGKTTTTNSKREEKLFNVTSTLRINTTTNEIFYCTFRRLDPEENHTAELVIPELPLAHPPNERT

Row | IC50 [nM] | SMILES
1 | 3.1 | Cc1cc(CNCc2cc(Cl)c(OCc3cccc(-c4cccc(OCCCN5CC[C@@H](O)C5)c4C)c3C)cc2OCc2cncc(C#N)c2)no1 [Example 2528, (R)-5-((4-chloro-5-((3′-(3-(3-hydroxypyrrolidin-1-yl)propoxy)-2,2′-dimethyl-[1,1′-biphenyl]-3-yl)methoxy)-2-((((5-methylisoxazol-3-yl)methyl)amino)methyl)phenoxy)methyl)nicotinonitrile]
2 | 1.1 | Cc1cc(CN(C)Cc2cc(Cl)c(OCc3cccc(-c4cccc(OCCCN5CC[C@@H](O)C5)c4C)c3C)cc2OCc2cncc(C#N)c2)no1 [Example 2529, (R)-5-((4-chloro-5-((3′-(3-(3-hydroxypyrrolidin-1-yl)propoxy)-2,2′-dimethyl-[1,1′-biphenyl]-3-yl)methoxy)-2-((methyl((5-methylisoxazol-3-yl)methyl)amino)methyl)phenoxy)methyl)nicotinonitrile]
3 | 6.2 | Cc1c(COc2cc(OCc3cncc(C#N)c3)c(CNCc3nccs3)cc2Cl)cccc1-c1cccc(OCCCN2CC[C@@H](O)C2)c1C [Example 2530, (R)-5-((4-chloro-5-((3′-(3-(3-hydroxypyrrolidin-1-yl)propoxy)-2,2′-dimethyl-[1,1′-biphenyl]-3-yl)methoxy)-2-(((thiazol-2-ylmethyl)amino)methyl)phenoxy)methyl)nicotinonitrile]
4 | 3.4 | Cc1c(COc2cc(OCc3cncc(C#N)c3)c(CNCc3cncs3)cc2Cl)cccc1-c1cccc(OCCCN2CC[C@@H](O)C2)c1C [Example 2531, (R)-5-((4-chloro-5-((3′-(3-(3-hydroxypyrrolidin-1-yl)propoxy)-2,2′-dimethyl-[1,1′-biphenyl]-3-yl)methoxy)-2-(((thiazol-5-ylmethyl)amino)methyl)phenoxy)methyl)nicotinonitrile]
5 | 4.8 | Cc1c(COc2cc(OCc3cncc(C#N)c3)c(CNCCc3c[nH]cn3)cc2Cl)cccc1-c1cccc(OCCCN2CC[C@@H](O)C2)c1C [Example 2532, (R)-5-((2-(((2-(1H-imidazol-4-yl)ethyl)amino)methyl)-4-chloro-5-((3′-(3-(3-hydroxypyrrolidin-1-yl)propoxy)-2,2′-dimethyl-[1,1′-biphenyl]-3-yl)methoxy)phenoxy)methyl)nicotinonitrile]
6 | 2.7 | Cc1c(COc2cc(OCc3cncc(C#N)c3)c(CN(C)Cc3nccs3)cc2Cl)cccc1-c1cccc(OCCCN2CC[C@@H](O)C2)c1C [Example 2533, (R)-5-((4-chloro-5-((3′-(3-(3-hydroxypyrrolidin-1-yl)propoxy)-2,2′-dimethyl-[1,1′-biphenyl]-3-yl)methoxy)-2-((methyl(thiazol-2-ylmethyl)amino)methyl)phenoxy)methyl)nicotinonitrile]
7 | 3.4 | Cc1c(COc2cc(OCc3cncc(C#N)c3)c(CN(C)Cc3cncs3)cc2Cl)cccc1-c1cccc(OCCCN2CC[C@@H](O)C2)c1C [Example 2534, (R)-5-((4-chloro-5-((3′-(3-(3-hydroxypyrrolidin-1-yl)propoxy)-2,2′-dimethyl-[1,1′-biphenyl]-3-yl)methoxy)-2-((methyl(thiazol-5-ylmethyl)amino)methyl)phenoxy)methyl)nicotinonitrile]
8 | 3.9 | Cc1c(COc2cc(OCc3cncc(C#N)c3)c(CN(C)CCc3c[nH]cn3)cc2Cl)cccc1-c1cccc(OCCCN2CC[C@@H](O)C2)c1C [Example 2535, (R)-5-((2-(((2-(1H-imidazol-4-yl)ethyl)(methyl)amino)methyl)-4-chloro-5-((3′-(3-(3-hydroxypyrrolidin-1-yl)propoxy)-2,2′-dimethyl-[1,1′-biphenyl]-3-yl)methoxy)phenoxy)methyl)nicotinonitrile]
9 | 7.4 | Cc1c(COc2cc(OCc3cncc(C#N)c3)c(CNCc3cc(C)n(C)n3)cc2Cl)cccc1-c1cccc(OCCCN2CC[C@@H](O)C2)c1C [Example 2536, (R)-5-((4-chloro-2-((((1,5-dimethyl-1H-pyrazol-3-yl)methyl)amino)methyl)-5-((3′-(3-(3-hydroxypyrrolidin-1-yl)propoxy)-2,2′-dimethyl-[1,1′-biphenyl]-3-yl)methoxy)phenoxy)methyl)nicotinonitrile]
10 | 6.5 | Cc1c(COc2cc(OCc3cncc(C#N)c3)c(CNCc3cc4ccccn4n3)cc2Cl)cccc1-c1cccc(OCCCN2CC[C@@H](O)C2)c1C [Example 2537, (R)-5-((4-chloro-5-((3′-(3-(3-hydroxypyrrolidin-1-yl)propoxy)-2,2′-dimethyl-[1,1′-biphenyl]-3-yl)methoxy)-2-(((pyrazolo[1,5-a]pyridin-2-ylmethyl)amino)methyl)phenoxy)methyl)nicotinonitrile]
11 | 43.8 | Cc1c(COc2cc(OCc3cncc(C#N)c3)c(CNCc3cc(-c4ccccc4)on3)cc2Cl)cccc1-c1cccc(OCCCN2CC[C@@H](O)C2)c1C [Example 2538, (R)-5-((4-chloro-5-((3′-(3-(3-hydroxypyrrolidin-1-yl)propoxy)-2,2′-dimethyl-[1,1′-biphenyl]-3-yl)methoxy)-2-((((5-phenylisoxazol-3-yl)methyl)amino)methyl)phenoxy)methyl)nicotinonitrile]
12 | 0.7 | Cc1c(COc2cc(OCc3cncc(C#N)c3)c(CNCc3cocn3)cc2Cl)cccc1-c1cccc(OCCCN2CC[C@@H](O)C2)c1C [Example 2539, (R)-5-((4-chloro-5-((3′-(3-(3-hydroxypyrrolidin-1-yl)propoxy)-2,2′-dimethyl-[1,1′-biphenyl]-3-yl)methoxy)-2-(((oxazol-4-ylmethyl)amino)methyl)phenoxy)methyl)nicotinonitrile]
13 | 3.1 | Cc1nc(CNCc2cc(Cl)c(OCc3cccc(-c4cccc(OCCCN5CC[C@@H](O)C5)c4C)c3C)cc2OCc2cncc(C#N)c2)no1 [Example 2540, (R)-5-((4-chloro-5-((3′-(3-(3-hydroxypyrrolidin-1-yl)propoxy)-2,2′-dimethyl-[1,1′-biphenyl]-3-yl)methoxy)-2-((((5-methyl-1,2,4-oxadiazol-3-yl)methyl)amino)methyl)phenoxy)methyl)nicotinonitrile]
14 | 3.9 | Cc1c(COc2cc(OCc3cncc(C#N)c3)c(CN(C)Cc3cc(C)n(C)n3)cc2Cl)cccc1-c1cccc(OCCCN2CC[C@@H](O)C2)c1C [Example 2541, (R)-5-((4-chloro-2-((((1,5-dimethyl-1H-pyrazol-3-yl)methyl)(methyl)amino)methyl)-5-((3′-(3-(3-hydroxypyrrolidin-1-yl)propoxy)-2,2′-dimethyl-[1,1′-biphenyl]-3-yl)methoxy)phenoxy)methyl)nicotinonitrile]
15 | 3.9 | Cc1c(COc2cc(OCc3cncc(C#N)c3)c(CN(C)Cc3cc4ccccn4n3)cc2Cl)cccc1-c1cccc(OCCCN2CC[C@@H](O)C2)c1C [Example 2542, (R)-5-((4-chloro-5-((3′-(3-(3-hydroxypyrrolidin-1-yl)propoxy)-2,2′-dimethyl-[1,1′-biphenyl]-3-yl)methoxy)-2-((methyl(pyrazolo[1,5-a]pyridin-2-ylmethyl)amino)methyl)phenoxy)methyl)nicotinonitrile]
16 | 192 | Cc1c(COc2cc(OCc3cncc(C#N)c3)c(CN(C)Cc3cc(-c4ccccc4)on3)cc2Cl)cccc1-c1cccc(OCCCN2CC[C@@H](O)C2)c1C [Example 2543, (R)-5-((4-chloro-5-((3′-(3-(3-hydroxypyrrolidin-1-yl)propoxy)-2,2′-dimethyl-[1,1′-biphenyl]-3-yl)methoxy)-2-((methyl((5-phenylisoxazol-3-yl)methyl)amino)methyl)phenoxy)methyl)nicotinonitrile]
17 | 1.6 | Cc1c(COc2cc(OCc3cncc(C#N)c3)c(CN(C)Cc3cocn3)cc2Cl)cccc1-c1cccc(OCCCN2CC[C@@H](O)C2)c1C [Example 2544, (R)-5-((4-chloro-5-((3′-(3-(3-hydroxypyrrolidin-1-yl)propoxy)-2,2′-dimethyl-[1,1′-biphenyl]-3-yl)methoxy)-2-((methyl(oxazol-4-ylmethyl)amino)methyl)phenoxy)methyl)nicotinonitrile]
18 | 11.9 | Cc1nc(CN(C)Cc2cc(Cl)c(OCc3cccc(-c4cccc(OCCCN5CC[C@@H](O)C5)c4C)c3C)cc2OCc2cncc(C#N)c2)no1 [Example 2545, (R)-5-((4-chloro-5-((3′-(3-(3-hydroxypyrrolidin-1-yl)propoxy)-2,2′-dimethyl-[1,1′-biphenyl]-3-yl)methoxy)-2-((methyl((5-methyl-1,2,4-oxadiazol-3-yl)methyl)amino)methyl)phenoxy)methyl)nicotinonitrile]
19 | 1.8 | Cc1c(COc2cc(OCc3cncc(C#N)c3)c(CNCc3ncco3)cc2Cl)cccc1-c1cccc(OCCCN2CC[C@@H](O)C2)c1C [Example 2546, (R)-5-((4-chloro-5-((3′-(3-(3-hydroxypyrrolidin-1-yl)propoxy)-2,2′-dimethyl-[1,1′-biphenyl]-3-yl)methoxy)-2-(((oxazol-2-ylmethyl)amino)methyl)phenoxy)methyl)nicotinonitrile]
20 | 2.5 | Cc1c(COc2cc(OCc3cncc(C#N)c3)c(CNCc3cnco3)cc2Cl)cccc1-c1cccc(OCCCN2CC[C@@H](O)C2)c1C [Example 2547, (R)-5-((4-chloro-5-((3′-(3-(3-hydroxypyrrolidin-1-yl)propoxy)-2,2′-dimethyl-[1,1′-biphenyl]-3-yl)methoxy)-2-(((oxazol-5-ylmethyl)amino)methyl)phenoxy)methyl)nicotinonitrile]
21 | < 0.038 | CCc1csc(CNCc2cc(Cl)c(OCc3cccc(-c4cccc(OCCCN5CC[C@@H](O)C5)c4C)c3C)cc2OCc2cncc(C#N)c2)n1 [Example 2548, (R)-5-((4-chloro-2-((((4-ethylthiazol-2-yl)methyl)amino)methyl)-5-((3′-(3-(3-hydroxypyrrolidin-1-yl)propoxy)-2,2′-dimethyl-[1,1′-biphenyl]-3-yl)methoxy)phenoxy)methyl)nicotinonitrile]
